Measurements from PMC6797808, “Fucosylated inhibitors of recently identified bangle lectin from Photorhabdus asymbiotica” (Scientific Reports, 2019).

What was measured:
PHL [1] = target: T1, PHL (Photorhabdus asymbiotica, UniProt C7BLE4); assay: SPR competitive inhibition of PHL binding to α-L-fucoside sensor chip; conditions: for IC50: 25 °C, three independent measurements; for β L-Fuc (affinity improvement factor): IC50,basic unit/(valency × IC50,ligand), basic unit L-Fuc; for PotencyL-Fuc: IC50 L-fucose / IC50 ligand; for β Azide1 (affinity improvement factor): basic unit azide 1
Procedure: To analyse the competitive inhibition of PHL binding to a multivalent surface, the surface plasmon resonance (SPR) technique was employed. A sensor chip presenting α-L-fucopyranoside residues was treated with a constant concentration of PHL, while an increasing concentration of the ligands was used to determine IC50 (Table 2, Fig. 3). […] To assess the contribution of valency to the affinity increase, an affinity improvement factor β was calculated as the relationship IC50,basic unit/(valency × IC50,ligand)[30].
Surface plasmon resonance (SPR) experiments were performed on a BIAcore T200 instrument (GE Healthcare, UK) at 25 °C, using buffer A supplemented with 0.05% Tween 20 as a running buffer. α-L-fucoside was immobilized onto CM5 sensor chip (GE Healthcare, UK) covered with a carboxymethylated dextran matrix. The sensor chip surface was activated with N-ethyl-N-(3-dimethylaminopropyl)carbodiimide/N-hydroxysuccinimide solution and then coated with streptavidin using the manufacturer’s standard protocol using HBS buffer (10 mM HEPES, 150 mM NaCl, 0.05% Tween 20, pH 7. 5). Unreacted groups were blocked with 1 M ethanolamine-HCl, pH 8.5. Biotinylated carbohydrate (biotinilated monomeric probes, Lectinity, Russia) was injected onto particular measuring channel and pure biotin on blank channel at a flow rate of 5 μl/min.
SPR inhibition measurements were carried out on measuring channel with L-fucoside at a flow rate of 5 µl/min. PHL was diluted to a concentration of 20 μg/ml by the buffer A supplemented with 0.05% Tween 20, mixed 1:1 (v/v) with various concentrations of inhibitors (500–5 μM) in the same buffer and injected onto the sensor chip. The response of lectin bound to the sugar surface at equilibrium was plotted against the concentration of inhibitor in order to determine IC50 (concentration of inhibitor resulting in 50% inhibition of binding). As IC50 is not a constant and depends on the experimental set-up, a parameter called potency was used for characterization. The potency of a tested inhibitor is the ratio of IC50 of a chosen standard inhibitor (in this case L-fucose) and the inhibitor in question. Pure PHL lectin was used as a control (0% inhibition) and channel with pure biotin served as a blank. IC50 was determined from triplicates.

[2] = tested on: P. asymbiotica subsp. australis cells; assay: Cell aggregation (cross-linking) assay; assay type: cell-based, Photorhabdus asymbiotica subsp. australis; conditions: three independent measurements
Source text: Because of the aggregation of PHL by calixarenes and dendrimers during SPR and ITC experiments, we decided to compare tetravalent compounds at a higher level. We performed a series of in vitro aggregation assays to reveal their aggregation properties towards P. asymbiotica subsp. australis (Table 4, Fig. 5). Prior to each assay, we confirmed the absence of aggregates in two negative controls – bacterial cells in PBS buffer and in the presence of azide 1 as a monomer. With all chosen compounds, we observed bacterial aggregates of a variable size that confirmed that they are capable of interacting with a cell surface. This effect may be caused by interaction of the multivalent inhibitors with PHL or other receptors. The concentration of the first appearance of aggregates varied according to the nature of the ligand used. […] An unexpected observation was that calixarene 7 had the lowest aggregation potential. In contrast to other techniques (hemagglutination, SPR and ITC), where calixarenes 6 and 7 provided similar results, during cross-linking experiments calixarene 7 was four times worse than calixarene 6. At the same time, both tetrameric calixarenes 6 and 7 are in a 1,3-alternate conformation with the two-faced presentation of the fucopyranosyl epitopes on opposite regions probably occupying a similar spatial orientation. The only difference is the tert-Bu group on the upper rim in calixarene 6, which might contribute to nonpolar interactions with whole P. asymbiotica cells.
P. asymbiotica subsp. australis was inoculated from stock cells stored at −80 °C into a standard LB media and were grown in 30 °C under an orbital shaking overnight. Bacterial growth was tracked by measuring the optical density of the broth at 600 nm (OD600) using a spectrophotometer (Biochrom Ltd., BioPhotometer WGA CO 8000 Biowave). Cells were harvested when reaching an OD600 = 0.5. The culture was centrifuged at 4,300 g and room temperature for 2 minutes (Minispin, Eppendorf, Germany) and cells were then washed three times with PBS buffer. Cells were diluted in PBS to OD600 of 2.0 and kept in a fridge until performing the aggregation assay.
P. asymbiotica subsp. australis cells and fucosylated compounds in a concentration ranging from 50 mM to 3.125 mM were gently mixed in a 9:1 (v/v) ratio. The reaction mixtures were left at room temperature for 10 minutes. 5 µl of reaction mixture was then transferred onto a microscope slide and observed under a fluorescence microscope (OLYMPUS IX81 Microscope IX81F-3 with IX2-UCB-2 Controller and X-Cite 120PC Q; Olympus and Excelitas Technologies, Japan, resp. USA). As a negative control, bacterial cells with/without azide 1 as a monomer were used. Three independent measurements were performed.

PHL [3] = target: T1, PHL; assay: Isothermal titration calorimetry of PHL with ligands; assay type: binding; conditions: for Kd / −TΔS / −ΔG / −ΔH / n (stoichiometry): ITC at 25 °C; for n (stoichiometry): two independent measurements; for Potency L-Fuc: KD L-fucose / KD ligand; for β L-Fuc (affinity improvement factor): KD,basic unit/(valency × KD,ligand), basic unit L-Fuc; for β Azide1 (affinity improvement factor): basic unit azide 1
Source text: The binding of PHL to different α-L-fucoside compounds was further characterized by isothermal titration calorimetry (ITC), enabling determination of the complete thermodynamic profile of the molecular interactions (Table 3, Fig. 4). […] Because of this, it was not possible to evaluate the data, despite the obvious interaction. The dendrimers also cross-linked/aggregated the protein as with calixarenes, however the curves provided clear outcomes with an affinity in the low micromolar range. The dissociation constants (KD) of all dendrimers correlate with their valency – the higher number of fucose, the more decreased KD. […] The stoichiometry value n corresponds to the number of terminal fucoses per ligand molecule. The n value decreases from 4 to 1 as the number of fucose units increases from 1 to 12 (Table 3).
PHL protein in buffer A was equilibrated at room temperature at least for 30 min before ITC measurement. All ITC experiments were performed using ITC200 calorimeter (Malvern Panalytical, UK) at 25 °C. Carbohydrate ligands dissolved in buffer A were used at different concentrations. Protein in the calorimeter cell (50 μM) was titrated by consecutive additions (2 μl) of the ligand (1.5–5 mM) in the syringe while stirring at 1000 rpm. Integrated heat effects were analysed by nonlinear regression using a single-site binding model and global fitting in Origin 7 software (Microcal Instruments)[37]. The thermodynamic parameters of synthesised inhibitors were determined from two independent measurements.

T1 sequence (C7BLE4 entry or part of it): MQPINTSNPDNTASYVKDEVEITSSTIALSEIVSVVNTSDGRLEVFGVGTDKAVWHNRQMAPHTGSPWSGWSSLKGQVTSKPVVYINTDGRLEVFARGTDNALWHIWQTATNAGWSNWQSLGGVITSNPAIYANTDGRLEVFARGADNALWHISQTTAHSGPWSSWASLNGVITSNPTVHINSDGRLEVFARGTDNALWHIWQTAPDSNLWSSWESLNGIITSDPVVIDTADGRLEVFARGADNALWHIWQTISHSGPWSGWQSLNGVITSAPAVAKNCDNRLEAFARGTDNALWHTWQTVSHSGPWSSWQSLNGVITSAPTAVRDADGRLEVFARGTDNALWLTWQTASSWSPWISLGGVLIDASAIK

SMILES | IC50 (PHL [1]) [µM] | β L-Fuc (affinity improvement factor) (PHL [1]) | PotencyL-Fuc (PHL [1]) | β Azide1 (affinity improvement factor) (PHL [1]) | The lowest concentration able to aggregate P. asymbiotica cells [2] | Kd (PHL [3]) [µM] | −TΔS (PHL [3]) [kcal/mol] | −ΔG (PHL [3]) [kcal/mol] | −ΔH (PHL [3]) [kcal/mol] | n (stoichiometry) (PHL [3]) | Potency L-Fuc (PHL [3]; ITC) | β L-Fuc (affinity improvement factor) (PHL [3]; ITC) | β Azide1 (affinity improvement factor) (PHL [3]; ITC) | PotencyAzide1 (PHL [1]; relative to azide 1) | PotencyAzide1 (PHL [3]; ITC, relative to azide 1)
C[C@@H]1O[C@@H](CCN=[N+]=[N-])[C@@H](O)[C@H](O)[C@@H]1O [Azide 1] | 11.5 ± 1.4 | 32 | 32 | 1 | No visible aggregation in used concentrations | 105 ± 9 | 4.83 ± 1.05 | 5.43 ± 0.478 | 10.3 ± 0.932 | 4.1 ± 0.3 | 13 | 13 | 1 | – | –
C[C@@H]1O[C@@H](CCn2cc(COCC(COCc3cn(CC[C@@H]4O[C@@H](C)[C@@H](O)[C@@H](O)[C@@H]4O)nn3)(COCc3cn(CC[C@@H]4O[C@@H](C)[C@@H](O)[C@@H](O)[C@@H]4O)nn3)COCc3cn(CC[C@@H]4O[C@@H](C)[C@@H](O)[C@@H](O)[C@@H]4O)nn3)nn2)[C@@H](O)[C@H](O)[C@@H]1O [Dendrimer 8] | 0.188 ± 0.037 | 481 | 1,922 | approximately 15 | 0.625 mM | 36.9 ± 3.7 | 6.84 ± 0.765 | 6.05 ± 0.598 | 12.9 ± 0.454 | 3.0 ± 0.1 | 38 | 9 | 1 | 65 | 3
